Experimental data as given in patent US20240050408A1, “USE OF MGLUR5 ANTAGONISTS FOR TREATING AMPHETAMINE ADDICTION” (NOVARTIS AG, priority 2020, published 2024).

Columns and labels:
Type in all cases: in vivo, human
[1] = system: patients with Cocaine Use Disorder (CUD); experiment: Phase 2 trial: proportion of cocaine use days by TLFB self-report; settings: for difference between groups in monthly proportion of cocaine use: MMRM
Protocol: This was a Phase 2 randomized, patient- and investigator-blinded, placebo-controlled, parallel-group study.
Patients diagnosed with Cocaine Use Disorder (CUD) according to Diagnostic and Statistical Manual of Mental Disorders, 5th Ed.
(§1) This study was conducted in patients with CUD and consisted of about a 21-day screening period followed by a 7-day baseline period, a 98-day outpatient treatment period, and an end of study visit evaluation about 14 days after the last study drug administration ([…]. A). Study treatment was taken twice daily (separated by about 12-hour intervals) with food. For patients in the mavoglurant arm [mavoglurant (free form) provided as modified release formulation (e.g. in WO2014/199316)], an uptitration regimen was performed for 14 days (50 mg b.i.d. from Days 1 to 7 and 100 mg b.i.d from Days 8 to 14) and was followed by 200 mg b.i.d for 84 days.
(§2) The primary endpoint was the proportion of cocaine use days during the treatment period, assessed by timeline followback [TLFB] cocaine self-report report. The secondary endpoints included a weekly urine analysis for a log-transformed quantitative measure of cocaine metabolite benzoylecgonine (BE), safety assessments (clinical parameters, suicidal ideation, adverse events [AE] and serious adverse events [SAE] at every visit), and pre- and post-dose levels of mavoglurant in the plasma. Exploratory endpoints included Clinical Global Impression (CGI; 2 components: CGI-S [rated illness severity], CGI-I [rated change from baseline]).
For the primary endpoint, a Bayesian analysis was conducted on the proportion of cocaine use days. It was assumed to be a continuous outcome with a normal distribution. The proportion of cocaine use days over the treatment period was analyzed using an analysis of covariance (ANCOVA) model with baseline use as a covariate. The profiles of consumption over time were compared between treatment groups through analyses of longitudinal data (weekly use and monthly use) using linear mixed model for repeated measures (MMRM). The model evaluated the posterior probability that the difference in proportions of cocaine use days between mavoglurant and placebo was <0 and that it was <−10%. A difference of 10% of days was deemed the minimal clinically relevant effect and a difference of 20% would be a very promising effect based on the literature in this indication. The study was deemed to show a positive signal of efficacy if the following two proof of concept (PoC) criteria were met:
The primary endpoint was the proportion of cocaine use days by TLFB during the treatment period (Day 1 to last day of treatment). For each subject, the proportion of cocaine use days was calculated by dividing the number of days of cocaine use during the treatment period with the treatment period, i.e., 98 days for completers and number of days between Day 1 and day of last dose in case of premature discontinuation of study treatment. Cocaine consumption was recorded daily (Yes/No) using the TLFB during the entire study.
Patient Reported Outcome included: • 1. The TLFB cocaine: is a cocaine assessment method that obtains estimates of daily cocaine intake and has been evaluated with clinical and nonclinical populations. Using a calendar, people provide retrospective estimates of their daily cocaine use over a specified time period that can vary up to 12 months from the interview date. Several memory aids can be used to enhance recall (e.g., calendar; key dates serve as anchors for reporting cocaine use). […] The method is recommended for use when relatively precise estimates of cocaine use are necessary, especially when a complete use pre-posttreatment). Clinically, the TLFB can be used to provide feedback about one's cocaine consumption in an effort to increase a client's motivation to change. • 2. […]

[2] = system: patients with Cocaine Use Disorder (CUD); experiment: Phase 2 trial: hair analysis; settings: end of study vs baseline; compared to placebo
Protocol: Hair analysis was used as an adjunct to urine samples collection and helps document drug use history. Hair specimens were collected and at baseline and at the end of the study. Patients with hair shorter than 3 cm or bleached and/or dyed hair (proximal 4 cm) were excluded from this assessment. If only the tip of long hairs were bleached, samples were collected.
The quantitative measures were log-transformed and individual ratio between end of study and baseline was calculated and listed by treatment, subject and visit/time. The log-transformed data profiles over time were explored, compared between treatment groups and the relationship between cocaine and alcohol measures in hair, in urine and timeline follow-back was assessed.
Summary statistics were provided by treatment and visit/time. Heatmaps to visualize the trend in the log-transformed quantitative measures were created. To explore the relationship between the log-transformed quantitative measures of the compounds being assayed and the timeline follow-back cocaine and alcohol measures, scatterplots were created for the end of study results. […]
To ensure that the hair analysis quantitative parameters only had numerical values, censored values were imputed as follows • Values below the LLOQ were replaced by LLOQ/2. • Values above the ULOQ were replaced by ULOQ.

[3] = system: patients with Cocaine Use Disorder (CUD); experiment: Phase 2 trial: Clinical Global Impression (CGI) improvement; settings: P<0.001
Protocol: as §1, §2
Observer Reported Outcome: • 1. […]

Q: How did the “cocaine use by TLFB, difference mavoglurant-placebo (result in words)” value ([1]; 98-day administration, P=0.021, listed as Mavoglurant) turn out when COC(=O)N1CC[C@@H]2[C@H]1CCC[C@@]2(O)C#Cc1cccc(C)c1 [mavoglurant, (-)-(3aR,4S,7aR)-4-Hydroxy-4-m-tolylethynyl-octahydro-indole-1-carboxylic acid methyl ester] was run?
A: reduced cocaine consumption significantly

Q: What about the “P(θmavoglurant−θplacebo<0|data), PoC criterion 1” value ([1]; Bayesian analysis over the treatment period (14 weeks), criterion met (P>0.90)) of the same compound?
A: 0.999

Q: What about the “P(θmavoglurant−θplacebo<−10%|data), PoC criterion 2” value ([1]; Bayesian analysis over the treatment period (14 weeks), criterion not met (P<0.50)) of the same compound?
A: 0.366

Q: And the “difference between groups in monthly proportion of cocaine use” value ([1]; Month 2, P=0.042)?
A: 8%

Q: And the “difference between groups in monthly proportion of cocaine use” value ([1]; Month 3, P=0.003)?
A: 14%

Q: What about the “posterior probability in reducing cocaine use, treatments difference <0” value ([1]; cocaine TLFB, 98-day administration (50/100 mg b.i.d. uptitration, then 200 mg b.i.d. 84 days, modified release), mavoglurant vs placebo, Bayesian analysis) of the same compound?
A: 99.0%

Q: What about the “posterior probability in reducing cocaine use, treatments difference <−10%” value ([1]; cocaine TLFB, 98-day administration, mavoglurant vs placebo, Bayesian analysis) of the same compound?
A: 36.6%

Q: And the “difference between groups in proportion of cocaine use days” value ([1]; over the treatment period (14 weeks), mavoglurant vs placebo)?
A: 8.7%

Q: And the “observed difference between mavoglurant and placebo in proportion of cocaine use days” value ([1]; over the treatment period, FIG. 2B)?
A: −0.087

Q: What about the “hair analysis: cocaine and metabolite, change from baseline” value [2] of the same compound?
A: higher reductions from baseline as compared to placebo

Q: And the “clinical improvement by CGI vs placebo (result in words)” value ([3]; CGI-I improvement from baseline)?
A: significantly enhanced clinical improvement

Q: And the “CGI 'very much' and 'much' improved, patients” value ([3]; Day 98, placebo 46.6%)?
A: 90.9%
